Literature values in US20180326089A1, “PROTEIN NANOSTRUCTURE BASED DRUG DELIVERY SYSTEM FOR THE DELIVERY OF THERAPEUTIC AGENTS TO THE ANTERIOR SEGMENT OF THE EYE” (Council of Scientific & Industrial Research, priority 2015, published 2018).

- water solubility: poorly water soluble
SMILES: CC(=O)N1CCN(c2ccc(OCC3COC(Cn4ccnc4)(c4ccc(Cl)cc4Cl)O3)cc2)CC1 (stereo not shown) [Ketoconazole]
